Assay results: patent US20100331363A1, “TREATMENT OF MITOCHONDRIAL DISORDERS USING A FARNESYL TRANSFERASE INHIBITOR” (Link Medicine Corporation, priority 2008, published 2010)
Entries after “also recorded” stand apart in the source; their conditions may differ.

Assays:
[1] = tested on: INS1 cells; assay: Glucolipotoxicity-induced mitochondrial fragmentation in INS1 cells; type: cell-based; settings: 1 nM
Method: To determine the effect of LNK-754 on glucolipotoxicity-induced mitochondrial fragmentation, LNK-754 at 1 nM and 100 nM concentrations was cultured with INS1 cells in media containing palmitate according to methods and procedures described in Molina et. al. 2009. […] Treatment with 1 nM LNK-754 results in about a 70% increase in normal mitochondrial morphology in comparison with no treatment with LNK-754. […] Treatment with 1 nM LNK-754 results in about a 55% decrease in fragmentation induced by palmitate. Low dose LNK-754 protected INS1 cells from glucolipotoxicity-induced mitochondrial fragmentation as evident from the striking mitochondrial imaging results.

[2] = tested on: human α-synuclein; assay: Masliah D-line α-synuclein transgenic mouse, α-synuclein immunoreactivity and ELISA; type: in vivo; settings: 0.09 mg/kg, second trial (FIG. 2B)
[3] = tested on: 3T3H-ras (61 L) xenograft tumor; Ras farnesylation; settings: continuous infusion, 7 day treatment, cited from earlier work
[4] = biological target: GGTase (Homo sapiens, UniProt P49354+P53609); assay: GGTase inhibitory activity, general statement; type: biochemical; settings: selective FTase inhibitors
[5] = tested on: autophagy-related gene transcripts; assay: mRNA of autophagy-related genes (Atg1, p62) in SH-SY5Y cells; type: cell-based, human; settings: 100 nM
Method: (§1) Quantitative real-time PCR: Gene expression profiles were done by qPCR on series of known autophagy genes. RNA was extracted with Tri-reagent (Sigma), and cDNAs generated using iScript (Biorad). qPCR analysis was carried out in a 96 well plate using an iCycler (BioRad, Hercules, Calif.), and iQ SYBR Green Supermix (Biorad) according to the manufacturer's specifications.
(§2) Rapamycin is a well-characterized autophagy stimulator that acts through inhibition of mTOR, a kinase involved in nutrient signaling and regulation of cell growth and survival.

[6] = tested on: p70 S6 kinase (S6K) phosphorylation, mTOR pathway; assay: p70 S6 kinase phosphorylation in SH-SY5Y cells; type: cell-based, human; settings: SH-SY5Y (FIG. 8f)
Text: as §2

[7] = tested on: Ras; assay: Inhibition of Ras farnesylation in SH-SY5Y cells; type: cell-based, human; settings: continuous exposure over long periods, average
[8] = tested on: Aβ; assay: h-APPs1 transgenic mouse, Aβ levels; type: in vivo; settings: 0.9 mg/kg once every 24 hr, three months
Text: Finally, it is important to note that LNK-754-TS had no effect on APP processing and secretion in a cell culture model of pathogenic Aβ production (Selkoe, D. J., et al. Ann N Y Acad Sci 777, 57-64 (1996)).

[9] = tested on: Ras; assay: Soluble/cytoplasmic Ras level in frontal cortex of alpha-synuclein transgenic mice; type: in vivo, mouse; settings: 0.09 mg/kg or 9 mg/kg b.i.d. 3 months vs vehicle
Method: The level of inhibition of Ras in brain by LNK-754-TS, dosed at an efficacious dose for efficacy in animal models of proteinopathy-dependent neurodegeneration, was investigated. Alpha-synuclein transgenic mice were treated for 3 months b.i.d. with vehicle or LNK-754-TS at 0.09 mg/kg or 9 mg/kg. Cortical tissue was extracted and homogenized, followed by isolation of soluble/cytosolic proteins in detergent-free buffer (50 mM Tris-HCl pH 7.4, 140 mM NaCl, 2 mM EDTA, Protease inhibitor cocktail) by centrifugation. 15 micrograms of protein lysate was analyzed per lane of SDS-PAGE gel, and immunoblotted for Ras and actin (FIG. 6). Densitometry was used to quantify the Ras/actin ratio for each sample, and results were plotted (FIG. 7). […] This contrasts with what is observed in xenograft cancer models, where inhibition of Ras farnesylation by high dose FTIs is directly correlated with efficacy (FIG. 3 and Example 3).

[10] = tested on: LC3 mRNA; assay: LC3 mRNA (qPCR) in SH-SY5Y cells; type: cell-based, human
Method: Cell culture and immunocytochemistry: SH-SY5Y cells were grown in DMEM medium supplemented with 10% FBS and 1% pen/strep at 37° C. and 5% CO2. Cells were differentiated with 10 μM retinoic acid for 48 hr, then treated with the either rapamycin (100 nM or 1 μM) or with 100 nM of either LNK-754-TS or Tipifarnib for 48-72 hr. Cells were then fixed with 4% paraformaldehyde and stained for LC3 (Novus biological, NB100-2331, dilution 1:800) followed by secondary Alexa-564 anti-Rabbit (A-11011).
as §1
Such increases in LC3 mRNA levels are associated in the literature with stimulation of macroautophagy. This supports the hypothesis that at doses as low as 1 nM in this in vitro system there is stimulation of autophagy in these cells.
Autophagy was measured in a neuroblastoma cell culture system by three distinct approaches: quantitation of autophagy-related mRNA's, immunofluorescence microscopy of autophagosomes, and biochemical detection of the microtubule-associated protein 1 light chain 3 (LC3) a key protein that is required for autophagosome formation. Differentiated human neuroblastoma cells (SH-SY5Y) were treated for 72 hr with LNK-754-TS (0.01-100 nM), Zarnestra® (also referred to herein as tipifarnib) (100 nM) or rapamycin (1 μM).

Row | Structure (SMILES) | decrease in fragmentation induced by palmitate [1] | increase in normal mitochondrial morphology ([1]; palmitate, vs no treatment) | number of α-synuclein positive neurons [2] | inhibition of Ras farnesylation at which significant inhibition of tumor growth was seen ([3]; tumor tissue) | continuous serum level at which significant inhibition of tumor growth was seen [3] | GGTase inhibitory activity [4] | transcript encoding p62 ([5]; SH-SY5Y (FIG. 8e)) | mRNA levels of a set of autophagy-related genes (incl. Atg1) ([5]; SH-SY5Y (FIG. 8d)) | phosphorylation of p70 S6 kinase (S6K) [6] | IC50 [7] | amounts of more soluble Aβ42 species [8] | cortical Aβ immunoreactivity and Aβ in insoluble fractions [8] | soluble Ras/actin level in cortex [9] | LC3 transcript ([10]; 0.01-100 nM, 72 hr, differentiated SH-SY5Y (FIG. 8a)) | levels of mRNA of LC3 ([10]; between 1 and 100 nM, SH-SY5Y, 72 hours (FIG. 4))
1 | C#Cc1cccc(-c2cc(=O)n(C)c3ccc([C@](O)(c4ccc(Cl)cc4)c4cncn4C)cc23)c1 [LNK-754, (R)-6-[(4-chlorophenyl)-hydroxyl-(1-methyl-1-H-imidazol-5-yl)-methyl]-4-(3-ethynylphenyl)-1-methyl-2-(1H)-quinonlinone] | ~55% | ~70% | significantly lowered | at least 50% | above 100 ng/mL | little to no GGTase inhibitory activity |  |  |  |  |  |  |  |  | 
2 | C#Cc1cccc(-c2cc(=O)n(C)c3ccc([C@](O)(c4ccc(Cl)cc4)c4cncn4C)cc23)c1 [LNK-754-TS, (R)-6-[(4-chlorophenyl)-hydroxyl-(1-methyl-1-H-imidazol-5-yl)-methyl]-4-(3-ethynylphenyl)-1-methyl-2-(1H)-quinonlinone (2S, 3S)-dihydroxybutanedioate] |  |  |  |  |  |  | induced upregulation; also recorded: increased | unaffected | did not inhibit phosphorylation | 1 nM | small reduction | did not significantly reduce | No significant differences | upregulated; also recorded: increased | significant increases
